Earlier results as cited in patent US4163799A, “Psychostimulant compounds” (Union Chimique Continentale U.C.C., priority 1975, dated 1979).

Details: caffeine, comparison in words, no test described; cited from earlier work

Cn1c(=O)c2c(ncn2C)n(C)c1=O [caffeine]
antihypnotic effect: does
